Test results reported in article PMC9029856, “Impact of Different [Tc(N)PNP]-Scaffolds on the Biological Properties of the Small cRGDfK Peptide: Synthesis, In Vitro and In Vivo Evaluations” (Molecules, 2022).
Where two headings read alike, the source gives them in different places.

Key:
[1] = assay type: physicochemical
Description: To explore the impact of the PNP ligand on the lipophilicity of the complexes, Log Ps in a mixture of n-octanol and PBS were determined. The lipophilicity decreased in the order ^99mTc1 > ^99mTc2 > ^99mTc3. The lipophilic character of each compound correlated well with the corresponding HPLC retention time and protein binding behavior.
Determination of log P values. n-Octanol/PBS partition coefficients were determined by vortex mixing (20 min) 3.0 mL of n-octanol, 3.0 mL of PBS and 100 µL of the radiolabeled compound purified as above. After centrifugation (3000 g for 10 min), aliquots (100 µL) of both the organic and the aqueous phases were collected and counted with a γ-counter.

[2] = assay type: in vitro ADME; details: serum
Description: Thus, to have some predictive indications of the metabolic outcome of our compounds, the binding to serum proteins and the enzymatic biotransformation of ^99mTc1–3 in blood and tissue homogenates were assessed in vitro by incubating the purified compounds at 37 °C in human and mouse sera as well as in murine liver and kidney homogenates.
Protein Binding. The affinity of the ^99mTc(N) complexes toward the serum proteins was evaluated by chromatographic methods.
Upon incubation, 25 µL of each sample was withdrawn and loaded on a pre-spun (735× g for 2 min) Sephadex G-50 mini-column. The column was centrifuged at 735 × g for 1 min. The collected eluate and the column were counted in a NaI-scintillation counter. The protein-bound complex was calculated as the percentage of the total activity.

[3] = system: human melanoma M21 (αvβ3 positive) cells; experiment: Cell uptake and internalization in M21 cells; assay type: cell-based
Description: (§1) Cell uptake and internalization studies were performed on receptor-positive human melanoma M21 (expressing high levels of αvβ3 integrin and moderate level of integrin αvβ5), human breast cancer MCF7 (exclusively expressing αvβ5), and receptor-negative human melanoma M21L cell lines. The expression of αvβ3 and αvβ5 by cells was already evaluated by flow cytometry (Table 2). The stability of each radiolabeled peptide in the culture media before and after cell exposure was assessed.
(§2) Experiments were conducted in suspension at 37 °C. The working conditions were set up to avoid cell damage and/or death. With the use of these information, the cells were pre-incubated in sterile glass tubes at 37 °C for 10 min, in the presence or not of cRGDfK pentapeptide (50 µL; 1.65 mM).
(§3) Then, 1 mL of the cell suspension (1 × 10^6 cells/mL) was incubated with intermittent agitation with 10 µL (10 µCi) of ^99mTc1–3. At 90 min, the cells were moved in Eppendorf microcentrifuge tubes (1.5 mL) and the incubation was interrupted by centrifugation (3000 rpm for 5 min at 10 °C). The supernatant (S1) was separated from the pellet. The cell pellet was treated 10 min at room temperature with saline acetate buffer (CH3COOH 0.2M/NaCl 0.5 M) to remove the membrane-bound compound. After centrifugation (3000 rpm for 10 min at 10 °C), the supernatant (S2) was separated from the pellet (P1), and each fraction was collected, placed in a separated counting tube, and the activity was measured using a NaI counter (Cobra II, Packard) to estimate both the cell uptake and the internalized fraction.
(§4) The uptake of complexes was expressed as percentage cell uptake of the total activity on 10^6 cells (% cell uptake/10^6 cells).
(§5) All assessments were conducted in triplicate for three experiments.

[4] = system: receptor-negative human melanoma M21L cells; experiment: Cell uptake and internalization in M21L cells; assay type: cell-based; details: negative M21L cell line, 37 °C, 90 min
Description: as §1, §2, §3, §4, §5

[5] = system: M21 and M21L melanoma tumors; details: cited from earlier work; for Blood / Heart / Intestine / Kidneys / Liver / Muscle / Stomach: tumor-bearing mice

For N=C(N)NCCC[C@@H]1NC(=O)[C@H](CCCCNC(=O)c2ccc(NN)nc2)NC(=O)[C@@H](Cc2ccccc2)NC(=O)[C@H](CC(=O)O)NC(=O)CNC1=O [^99mTc-HYNIC-cRGDfK, metal not drawn], the logP [1] was -3.52, the fraction unbound [2] was 0.977 and the “cell uptake (sum of surface bound and internalized radioactivity), blocked” value ([3]; M21 blocked by an excess of cold cRGDfK, 37 °C, 90 min) was 0.85 ± 0.08 % cell uptake/10^6 cells. The “cell uptake (sum of surface bound and internalized radioactivity)” value ([3]; M21 unblocked, 37 °C, 90 min) was 1.50 ± 0.08 % cell uptake/10^6 cells, the “specific/nonspecific ratio, internalized radioactivity only” value ([3]; internalized radioactivity, melanoma cell lines) was 6.6 and the “ratio between specific and non-specific uptake” value ([3]; total uptake, melanoma cell lines) was 1.15. For the same compound, the “cell uptake (sum of surface bound and internalized radioactivity)” value [4] was 1.30 ± 0.15 % cell uptake/10^6 cells, the M21/M21L ratio ([5]; 1 h p.i.) was 3.21 and the M21/blood ratio ([5]; 1 h p.i.) was 2.79. The M21/kidneys ratio ([5]; 1 h p.i.) was 0.74, the M21/liver ratio ([5]; 1 h p.i.) was 1.03 and the M21/muscle ratio ([5]; 1 h p.i.) was 3.59. The M21L tumor uptake ([5]; 1 h p.i.) was 0.85 ± 0.20 %IA/g, the M21 tumor uptake ([5]; 1 h p.i.) was 2.73 ± 0.26 %IA/g and the M21/blood ratio ([5]; 4 h p.i.) was 4.58. The M21/kidneys ratio ([5]; 4 h p.i.) was 0.73, the M21/liver ratio ([5]; 4 h p.i.) was 1.20 and the M21/muscle ratio ([5]; 4 h p.i.) was 6.05. For the same compound, the M21 tumor uptake ([5]; 4 h p.i.) was 2.06 ± 0.37 %IA/g, the Blood ([5]; 1 h p.i.) was 0.98 ± 0.04 %IA/g and the Heart ([5]; 1 h p.i.) was 1.01 ± 0.05 %IA/g. The Intestine ([5]; 1 h p.i.) was 2.04 ± 0.18 %IA/g, the Kidneys ([5]; 1 h p.i.) was 3.68 ± 0.13 %IA/g and the Liver ([5]; 1 h p.i.) was 2.63 ± 0.14 %IA/g. For the same compound, the Muscle ([5]; 1 h p.i.) was 0.76 ± 0.69 %IA/g, the Stomach ([5]; 1 h p.i.) was 2.50 ± 0.75 %IA and the Blood ([5]; 4 h p.i.) was 0.45 ± 0.02 %IA/g. The Heart ([5]; 4 h p.i.) was 0.64 ± 0.09 %IA/g, the Intestine ([5]; 4 h p.i.) was 1.29 ± 0.25 %IA/g and the Kidneys ([5]; 4 h p.i.) was 2.81 ± 0.37 %IA/g. The Liver ([5]; 4 h p.i.) was 1.71 ± 0.28 %IA/g, the Muscle ([5]; 4 h p.i.) was 0.34 ± 0.05 %IA/g and the Stomach ([5]; 4 h p.i.) was 1.28 ± 0.22 %IA.
